# Laboratory results reported in ChEMBL document CHEMBL5579892, “Rational Design, Synthesis, and Structure-Activity Relationship of a Novel Isoquinolinone-Based Series of HBV Capsid Assembly Modulators Leading to the Identification of Clinical Candidate AB-836” (J Med Chem, 2024).
# pEC50, pIC50: −log10 of the molar value. Activity calls are given as the source filed them. The calls are words filed in the database; no cut-off is given here.
# Assays:
# Hepatitis B virus [1] = test: Antiviral activity against HBV infected in HepDE19 cells assessed as effect on capsid particle formation at 1 uM; format: functional, organism-based
# [2] = Drug concentration in rat liver at 10 mg/kg, po measured after 24 hrs; format: ADME, organism-based; details: read-out: Ct
# Hepatitis B virus [3] = test: Antiviral activity against HBV infected in NOD.CB17-Prkdcscid/J mouse assessed as log10 reduction in viral DNA at 10 mg/kg, po administered once daily for 7 days by qPCR analysis; format: functional; details: time 7 day
# [4] = Microsomal stability in monkey liver microsomes assessed as intrinsic clearance; format: ADME, Macaca mulatta, Microsome; details: rhesus monkey, read-out: CLH
# Hepatitis B virus [5] = test: Antiviral activity against HBV infected in HepG2-hNTCP-C4 cells assessed as inhibition of cccDNA formation preincubated with compound followed by viral infection; format: functional, organism-based
# Hepatitis B virus [6] = test: Antiviral activity against HBV infected in HepG2-hNTCP-C4 cells assessed as inhibition of HBsAg formation preincubated with compound followed by viral infection; format: functional, organism-based
# [7] = Clearance in CD-1 mouse at 2 mg/kg, iv; format: ADME, organism-based; details: in vivo
# [8] = AUC (0 to infinity) in monkey at 10 mg/kg, po; format: ADME, organism-based, Macaca mulatta; details: rhesus monkey, in vivo
# [9] = Clearance in monkey at 2 mg/kg, iv; format: ADME, organism-based, Macaca mulatta; details: rhesus monkey, in vivo
# Hepatitis B virus [10] = test: Antiviral activity against HBV infected in HepG2-hNTCP-C4 cells assessed as inhibition of HBsAg formation preincubated with virus followed by compound addition; format: functional, organism-based
# [11] = Half-life in CD-1 mouse at 10 mg/kg, po; format: ADME, organism-based; details: in vivo
# Hepatitis B virus [12] = test: Antiviral activity against HBV infected in HepDE19 cells assessed as effect on pgRNA core protein at 1 uM; format: functional, organism-based
# [13] = Half-life in monkey at 10 mg/kg, po; format: ADME, organism-based, Macaca mulatta; details: rhesus monkey, in vivo
# [14] = Kinetic solubility in PBS at pH 7.4; format: physicochemical; details: read-out: Kinetic_solubility
# [15] = Microsomal stability in mouse liver microsomes assessed as intrinsic clearance; format: ADME, Microsome; details: read-out: CLH
# [16] = Microsomal stability in human liver microsomes assessed as intrinsic clearance; format: ADME, Microsome; details: read-out: CLH
# Hepatitis B virus [17] = test: Antiviral activity against HBV infected in NOD.CB17-Prkdcscid/J mouse assessed as log10 reduction in viral DNA at 3 mg/kg, po administered once daily for 7 days by qPCR analysis; format: functional; details: time 7 day
# [18] = Drug concentration in rat liver assessed as fold increase in EC90 concentration required for antiviral activity against HBV infected in HepDE19 cells at 10 mg/kg, po measured after 24 hrs; format: ADME, organism-based; details: in vivo
# [19] = Microsomal stability in rat liver microsomes assessed as intrinsic clearance; format: ADME, Microsome; details: read-out: CLH
# [20] = Drug concentration in CD-1 mouse liver at 10 mg/kg, po measured after 24 hrs; format: ADME, organism-based; details: read-out: Ct
# Hepatitis B virus [21] = test: Antiviral activity against HBV infected in HepDE19 cells; format: functional, organism-based
# [22] = AUC (0 to infinity) in rat at 10 mg/kg, po; format: ADME, organism-based; details: in vivo
# [23] = Clearance in rat at 2 mg/kg, iv; format: ADME, organism-based; details: in vivo
# Hepatitis B virus [24] = test: Antiviral activity against HBV infected in HepG2-hNTCP-C4 cells assessed as inhibition of cccDNA formation preincubated with virus followed by compound addition; format: functional, organism-based
# [25] = Drug concentration in CD-1 mouse liver assessed as fold increase in EC90 concentration required for antiviral activity against HBV infected in HepDE19 cells at 10 mg/kg, po measured after 24 hrs; format: ADME, organism-based; details: in vivo
# [26] = Half-life in rat at 10 mg/kg, po; format: ADME, organism-based; details: in vivo
# [27] = Cytotoxicity against human HepDE19 cells by CellTiter-Glo analysis; format: toxicity, cell-based
# [28] = AUC (0 to infinity) in CD-1 mouse at 10 mg/kg, po; format: ADME, organism-based; details: in vivo
# Cytochrome P450 2C9 = Cytochrome P450 2C9 (Homo sapiens, UniProt P11712); test: Inhibition of CYP2C9 (unknown origin); format: ADME
# Sequence of Cytochrome P450 2C9 (P11712 whole entry): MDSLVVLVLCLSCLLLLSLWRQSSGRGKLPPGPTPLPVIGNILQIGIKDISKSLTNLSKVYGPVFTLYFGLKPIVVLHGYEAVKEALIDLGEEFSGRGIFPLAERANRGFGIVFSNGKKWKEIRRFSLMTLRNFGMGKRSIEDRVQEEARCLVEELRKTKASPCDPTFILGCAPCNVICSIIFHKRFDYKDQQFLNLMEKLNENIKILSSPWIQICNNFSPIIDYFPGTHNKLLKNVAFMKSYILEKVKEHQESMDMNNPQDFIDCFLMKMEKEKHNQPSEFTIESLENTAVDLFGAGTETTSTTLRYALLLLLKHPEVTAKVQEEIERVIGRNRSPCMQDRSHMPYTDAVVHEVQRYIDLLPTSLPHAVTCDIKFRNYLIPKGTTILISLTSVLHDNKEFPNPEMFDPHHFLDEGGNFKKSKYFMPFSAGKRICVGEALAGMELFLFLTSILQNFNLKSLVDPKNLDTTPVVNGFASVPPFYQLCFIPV
# [29] = Oral bioavailability in CD-1 mouse at 10 mg/kg; format: ADME, organism-based; details: in vivo
# [30] = AUC (0 to infinity) in CD-1 mouse at 2 mg/kg, iv; format: ADME, organism-based; details: in vivo
# Hepatitis B virus [31] = test: Antiviral activity against HBV infected in NOD.CB17-Prkdcscid/J mouse assessed as log10 reduction in viral DNA at 30 mg/kg, po administered twice daily for 7 days by qPCR analysis; format: functional; details: time 7 day
# Cytochrome P450 1A2 = biological target: T1, Cytochrome P450 1A2 (Homo sapiens, UniProt P05177); test: Inhibition of CYP1A2 (unknown origin); format: ADME
# T1 sequence (P05177 whole entry): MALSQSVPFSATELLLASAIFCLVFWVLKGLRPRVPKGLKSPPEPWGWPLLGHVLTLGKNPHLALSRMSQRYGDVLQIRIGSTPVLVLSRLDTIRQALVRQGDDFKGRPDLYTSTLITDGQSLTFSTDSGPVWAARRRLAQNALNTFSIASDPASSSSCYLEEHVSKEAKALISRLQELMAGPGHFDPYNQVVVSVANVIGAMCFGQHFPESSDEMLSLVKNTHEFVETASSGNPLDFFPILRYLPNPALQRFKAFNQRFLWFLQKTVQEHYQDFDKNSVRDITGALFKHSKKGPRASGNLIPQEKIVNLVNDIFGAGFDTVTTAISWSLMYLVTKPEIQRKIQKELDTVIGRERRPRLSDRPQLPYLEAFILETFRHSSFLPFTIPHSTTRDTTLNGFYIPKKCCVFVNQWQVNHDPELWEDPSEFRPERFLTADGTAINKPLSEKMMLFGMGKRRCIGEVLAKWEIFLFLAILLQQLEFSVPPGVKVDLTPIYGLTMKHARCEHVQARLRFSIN
# [32] = Half-life in CD-1 mouse at 2 mg/kg, iv; format: ADME, organism-based; details: in vivo
# Hepatitis B virus [33] = test: Antiviral activity against HBV infected in NOD.CB17-Prkdcscid/J mouse assessed as log10 reduction in viral DNA at 10 mg/kg, po administered twice daily for 7 days by qPCR analysis; format: functional; details: time 7 day
# Cytochrome P450 2D6 = Cytochrome P450 2D6 (Homo sapiens, UniProt P10635); test: Inhibition of CYP2D6 (unknown origin); format: ADME
# Sequence of Cytochrome P450 2D6 (P10635 whole entry): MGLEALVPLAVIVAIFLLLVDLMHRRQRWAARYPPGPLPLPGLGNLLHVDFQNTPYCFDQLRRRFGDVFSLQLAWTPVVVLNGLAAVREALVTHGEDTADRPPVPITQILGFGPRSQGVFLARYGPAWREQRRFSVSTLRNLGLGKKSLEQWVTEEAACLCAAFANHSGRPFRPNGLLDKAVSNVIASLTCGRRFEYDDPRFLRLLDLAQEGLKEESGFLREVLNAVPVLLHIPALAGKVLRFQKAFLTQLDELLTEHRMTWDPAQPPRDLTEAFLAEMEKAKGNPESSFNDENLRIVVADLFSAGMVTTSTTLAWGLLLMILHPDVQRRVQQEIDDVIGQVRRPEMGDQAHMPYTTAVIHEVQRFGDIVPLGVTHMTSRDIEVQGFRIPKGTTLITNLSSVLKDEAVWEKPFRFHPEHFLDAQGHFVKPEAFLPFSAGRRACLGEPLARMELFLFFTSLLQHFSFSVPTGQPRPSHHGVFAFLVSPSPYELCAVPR
# Hepatitis B virus [34] = test: Antiviral activity against HBV infected in NOD.CB17-Prkdcscid/J mouse assessed as log10 reduction in viral DNA at 30 mg/kg, po administered once daily for 7 days by qPCR analysis; format: functional; details: time 7 day
# Cytochrome P450 3A4 = Cytochrome P450 3A4 (Homo sapiens, UniProt P08684); test: Inhibition of CYP3A4 (unknown origin); format: ADME
# Sequence of Cytochrome P450 3A4 (P08684 whole entry): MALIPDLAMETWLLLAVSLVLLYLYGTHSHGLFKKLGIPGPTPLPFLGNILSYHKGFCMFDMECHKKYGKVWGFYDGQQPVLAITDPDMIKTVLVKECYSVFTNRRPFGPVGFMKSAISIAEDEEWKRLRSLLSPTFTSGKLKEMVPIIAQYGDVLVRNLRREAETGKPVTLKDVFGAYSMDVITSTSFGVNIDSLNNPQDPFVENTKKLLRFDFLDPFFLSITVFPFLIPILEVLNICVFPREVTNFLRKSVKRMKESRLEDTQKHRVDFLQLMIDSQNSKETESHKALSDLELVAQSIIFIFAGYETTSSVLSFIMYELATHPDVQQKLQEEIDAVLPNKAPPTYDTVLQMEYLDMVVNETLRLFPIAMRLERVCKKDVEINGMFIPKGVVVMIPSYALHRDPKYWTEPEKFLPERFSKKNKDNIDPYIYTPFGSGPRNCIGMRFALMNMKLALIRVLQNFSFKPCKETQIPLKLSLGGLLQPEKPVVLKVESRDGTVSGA
# Hepatitis B virus [35] = test: Antiviral activity against HBV infected in po dosed NOD.CB17-Prkdcscid/J mouse assessed as reduction in viral DNA administered once daily or twice daily for 7 days by qPCR analysis; format: functional, organism-based; details: dose 3-30 mg/kg, time 7.0 day
# Cytochrome P450 2B6 = biological target: T2, Cytochrome P450 2B6 (Homo sapiens, UniProt P20813); test: Inhibition of CYP2B6 (unknown origin); format: ADME
# T2 sequence (P20813 whole entry): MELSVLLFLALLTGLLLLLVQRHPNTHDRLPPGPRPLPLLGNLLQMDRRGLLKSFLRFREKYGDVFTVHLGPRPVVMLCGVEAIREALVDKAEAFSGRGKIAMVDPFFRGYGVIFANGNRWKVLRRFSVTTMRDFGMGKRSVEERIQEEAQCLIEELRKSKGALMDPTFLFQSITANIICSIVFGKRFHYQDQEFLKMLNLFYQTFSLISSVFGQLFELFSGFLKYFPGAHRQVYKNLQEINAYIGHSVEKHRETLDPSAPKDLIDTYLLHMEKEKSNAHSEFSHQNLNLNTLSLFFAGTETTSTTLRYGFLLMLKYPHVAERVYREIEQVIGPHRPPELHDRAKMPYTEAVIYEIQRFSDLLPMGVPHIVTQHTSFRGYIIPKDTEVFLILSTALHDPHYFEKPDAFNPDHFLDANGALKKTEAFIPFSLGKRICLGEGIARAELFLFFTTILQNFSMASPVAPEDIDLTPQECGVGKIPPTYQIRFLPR
# Cytochrome P450 2C19 = Cytochrome P450 2C19 (Homo sapiens, UniProt P33261); test: Inhibition of CYP2C19 (unknown origin); format: ADME
# Sequence of Cytochrome P450 2C19 (P33261 whole entry): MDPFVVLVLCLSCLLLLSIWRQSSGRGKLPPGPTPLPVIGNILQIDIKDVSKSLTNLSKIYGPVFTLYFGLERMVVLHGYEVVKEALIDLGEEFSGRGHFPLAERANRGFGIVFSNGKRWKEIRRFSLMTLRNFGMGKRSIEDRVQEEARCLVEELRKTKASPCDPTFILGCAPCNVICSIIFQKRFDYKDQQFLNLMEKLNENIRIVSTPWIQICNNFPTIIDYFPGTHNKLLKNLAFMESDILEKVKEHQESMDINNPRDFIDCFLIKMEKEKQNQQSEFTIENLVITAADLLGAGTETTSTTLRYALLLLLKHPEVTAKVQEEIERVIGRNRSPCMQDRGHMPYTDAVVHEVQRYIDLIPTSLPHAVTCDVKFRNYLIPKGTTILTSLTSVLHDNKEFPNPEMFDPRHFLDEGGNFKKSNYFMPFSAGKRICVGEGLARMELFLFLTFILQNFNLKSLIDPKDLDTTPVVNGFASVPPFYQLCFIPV
structure (smiles),measurement,setting,value
C[C@H](c1c[nH]c(=O)c2cc(F)c(F)cc12)N(C)C(=O)Nc1ccc(F)c(C#N)c1,Activity,Hepatitis B virus [1],inactive
same,concentration at 24 h,[2],334 ng/mL
same,log(activity),Hepatitis B virus [3],2.5
same,microsomal CLint,[4],34 µL/min/mg
same,pEC50,Hepatitis B virus [5],6.76
same,pEC50,Hepatitis B virus [6],6.71
same,clearance,[7],13 mL/min/kg
same,AUC(0-inf),[8],9270 ng·h/mL
same,clearance,[9],9 mL/min/kg
same,Activity,Hepatitis B virus [10],inactive
same,half-life,[11],3.1 h
same,Activity,Hepatitis B virus [12],inactive
same,half-life,[13],14 h
same,solubility kinetic,[14],120 µM
same,microsomal CLint,[15],10 µL/min/mg
same,microsomal CLint,[16],31 µL/min/mg
same,log(activity),Hepatitis B virus [17],1.4
same,fold change (FC),[18],20
same,microsomal CLint,[19],46 µL/min/mg
same,concentration at 24 h,[20],395 ng/mL
same,pEC50,Hepatitis B virus [21],8.00
same,AUC(0-inf),[22],5740 ng·h/mL
same,clearance,[23],11 mL/min/kg
same,Activity,Hepatitis B virus [24],inactive
same,fold change (FC),[25],25
same,half-life,[26],4.4 h
same,CC50,[27],> 25000 nM
same,AUC(0-inf),[28],13000 ng·h/mL
CC(c1c[nH]c(=O)c2ccccc12)N(C)C(=O)Nc1ccc(F)c(Cl)c1 (stereo not drawn),pIC50,Cytochrome P450 2C9,< 4.70
same,bioavailability,[29],80%
same,AUC(0-inf),[30],3520 ng·h/mL
same,log(activity),Hepatitis B virus [31],1.4
same,half-life,[11],2.2 h
same,solubility kinetic,[14],135 µM
same,pIC50,Cytochrome P450 1A2,< 4.70
same,microsomal CLint,[15],29 µL/min/mg
same,microsomal CLint,[16],44 µL/min/mg
same,half-life,[32],2.4 h
same,log(activity),Hepatitis B virus [33],0.6
same,pEC50,Hepatitis B virus [21],7.35
same,pIC50,Cytochrome P450 2D6,< 4.70
same,log(activity),Hepatitis B virus [34],0.3
same,pIC50,Cytochrome P450 3A4,< 4.70
same,Activity,Hepatitis B virus [35],Dose-Dependent Effect
same,pIC50,Cytochrome P450 2B6,< 4.70
same,CC50,[27],> 25000 nM
same,AUC(0-inf),[28],13800 ng·h/mL
same,pIC50,Cytochrome P450 2C19,< 4.70
C[C@H](c1c[nH]c(=O)c2cc(F)c(F)cc12)N(C)C(=O)Nc1ccc(F)c(Cl)c1,solubility kinetic,[14],42 µM
same,microsomal CLint,[15],23 µL/min/mg
same,microsomal CLint,[16],32 µL/min/mg
same,pEC50,Hepatitis B virus [21],8.15
same,CC50,[27],> 25000 nM
